According to ChEMBL document CHEMBL1128191, “1-(1-[4-[(N-acetyl-4-piperidinyl)oxy]-2-methoxybenzoyl]piperidin-4-yl)-4H-3,1-benzoxazin-2(1H)-one (L-371,257): a new, orally bioavailable, non-peptide oxytocin antagonist” (J Med Chem, 1995):

Tests used:
Vasopressin V2 receptor [1] = biological target: T1, Vasopressin V2 receptor (Homo sapiens, UniProt P30518); assay: Binding affinity was evaluated by measuring the displacement of [3H]AVP (arginine vasopressin) from specific binding sites in kidney medulla obtained from early postmortem human donors.; assay type: tissue-based
T1 sequence (P30518 whole entry): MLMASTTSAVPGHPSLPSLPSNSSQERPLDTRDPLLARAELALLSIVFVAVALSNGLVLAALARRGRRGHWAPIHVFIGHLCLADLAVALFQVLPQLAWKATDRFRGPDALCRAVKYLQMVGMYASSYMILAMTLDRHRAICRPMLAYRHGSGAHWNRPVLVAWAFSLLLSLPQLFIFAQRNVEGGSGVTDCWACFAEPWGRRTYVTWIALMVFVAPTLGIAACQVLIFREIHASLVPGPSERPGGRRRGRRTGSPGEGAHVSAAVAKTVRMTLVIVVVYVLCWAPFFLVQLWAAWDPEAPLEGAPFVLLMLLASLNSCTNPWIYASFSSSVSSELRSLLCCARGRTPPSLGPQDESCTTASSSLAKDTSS

Vasopressin V1a receptor [2] = biological target: T2, Vasopressin V1a receptor (Rattus norvegicus, UniProt P30560); assay: Binding affinity was evaluated by measuring the displacement of [3H]AVP (arginine vasopressin) from specific binding sites in rat liver.
T2 sequence (P30560 whole entry): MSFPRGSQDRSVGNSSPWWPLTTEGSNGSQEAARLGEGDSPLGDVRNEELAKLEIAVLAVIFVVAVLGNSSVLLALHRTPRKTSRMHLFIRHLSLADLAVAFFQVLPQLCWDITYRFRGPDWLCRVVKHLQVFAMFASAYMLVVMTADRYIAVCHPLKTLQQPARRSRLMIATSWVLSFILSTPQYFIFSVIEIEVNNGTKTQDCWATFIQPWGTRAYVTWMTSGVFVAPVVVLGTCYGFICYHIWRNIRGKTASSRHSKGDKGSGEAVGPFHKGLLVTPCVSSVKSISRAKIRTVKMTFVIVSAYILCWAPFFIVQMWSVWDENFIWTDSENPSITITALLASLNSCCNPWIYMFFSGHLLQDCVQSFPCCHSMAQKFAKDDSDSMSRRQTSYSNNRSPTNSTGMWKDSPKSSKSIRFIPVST

Vasopressin V1a receptor [3] = biological target: T3, Vasopressin V1a receptor (Homo sapiens, UniProt P37288); assay: Binding affinity was evaluated by measuring the displacement of [3H]AVP (arginine vasopressin) from specific binding sites in human platelets.
T3 sequence (P37288 whole entry): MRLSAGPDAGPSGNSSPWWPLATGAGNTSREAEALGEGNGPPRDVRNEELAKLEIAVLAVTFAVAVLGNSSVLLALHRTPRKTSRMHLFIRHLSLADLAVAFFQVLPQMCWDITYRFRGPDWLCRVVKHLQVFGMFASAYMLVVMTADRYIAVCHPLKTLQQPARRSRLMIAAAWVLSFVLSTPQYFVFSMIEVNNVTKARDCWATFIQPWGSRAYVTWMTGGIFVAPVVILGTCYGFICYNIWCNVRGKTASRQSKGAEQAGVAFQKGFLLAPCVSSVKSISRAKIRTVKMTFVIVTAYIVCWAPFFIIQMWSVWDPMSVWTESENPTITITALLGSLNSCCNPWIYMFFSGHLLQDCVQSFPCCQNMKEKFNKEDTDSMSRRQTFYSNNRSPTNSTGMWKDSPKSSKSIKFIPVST

Vasopressin V2 receptor [4] = biological target: T4, Vasopressin V2 receptor (Rattus norvegicus, UniProt Q00788); assay: Binding affinity was evaluated by measuring the displacement of [3H]AVP (arginine vasopressin) from specific binding sites in kidney medulla obtained from rats.; assay type: tissue-based
T4 sequence (Q00788 whole entry): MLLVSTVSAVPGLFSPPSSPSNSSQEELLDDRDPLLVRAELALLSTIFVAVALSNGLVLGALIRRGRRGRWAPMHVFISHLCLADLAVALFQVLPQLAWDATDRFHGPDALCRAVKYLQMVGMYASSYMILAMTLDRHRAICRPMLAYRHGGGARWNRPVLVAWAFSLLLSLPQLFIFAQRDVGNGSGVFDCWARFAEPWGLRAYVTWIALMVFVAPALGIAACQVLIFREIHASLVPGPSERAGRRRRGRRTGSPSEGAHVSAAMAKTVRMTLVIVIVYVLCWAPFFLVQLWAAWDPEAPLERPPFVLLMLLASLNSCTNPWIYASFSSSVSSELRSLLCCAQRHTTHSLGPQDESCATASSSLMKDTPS

Oxytocin receptor [5] = biological target: T5, Oxytocin receptor (Rattus norvegicus, UniProt P70536); assay: Binding affinity was evaluated by measuring the displacement of [3H]-OT (oxytocin) from specific binding sites in uterine tissue obtained from rats
T5 sequence (P70536 whole entry): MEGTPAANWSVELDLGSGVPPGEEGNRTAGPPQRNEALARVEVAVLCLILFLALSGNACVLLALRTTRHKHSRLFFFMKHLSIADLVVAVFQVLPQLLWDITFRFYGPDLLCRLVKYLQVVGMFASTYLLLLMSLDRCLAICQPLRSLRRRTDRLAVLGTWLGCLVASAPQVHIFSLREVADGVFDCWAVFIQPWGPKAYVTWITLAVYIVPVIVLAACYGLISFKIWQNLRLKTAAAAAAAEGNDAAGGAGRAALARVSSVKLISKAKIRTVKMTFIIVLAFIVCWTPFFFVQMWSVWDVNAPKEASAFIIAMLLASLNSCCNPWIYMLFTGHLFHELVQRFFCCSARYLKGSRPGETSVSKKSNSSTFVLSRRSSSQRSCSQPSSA

Oxytocin receptor [6] = biological target: T6, Oxytocin receptor (Homo sapiens, UniProt P30559); assay: Binding affinity was evaluated by measuring the displacement of [3H]-OT (oxytocin) from specific binding sites in uterine tissue obtained from human.
T6 sequence (P30559 whole entry): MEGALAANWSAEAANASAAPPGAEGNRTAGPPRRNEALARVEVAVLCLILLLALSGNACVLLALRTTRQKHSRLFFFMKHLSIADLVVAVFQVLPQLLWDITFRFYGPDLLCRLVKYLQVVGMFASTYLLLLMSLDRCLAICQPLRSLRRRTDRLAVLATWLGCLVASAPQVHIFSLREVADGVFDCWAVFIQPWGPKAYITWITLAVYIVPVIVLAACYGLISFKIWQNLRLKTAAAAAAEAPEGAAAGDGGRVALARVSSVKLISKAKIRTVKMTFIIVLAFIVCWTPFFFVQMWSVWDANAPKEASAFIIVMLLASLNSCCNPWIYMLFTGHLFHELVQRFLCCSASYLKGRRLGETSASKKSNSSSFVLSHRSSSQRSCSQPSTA

Vasopressin V1a receptor [7] = biological target: T2, Vasopressin V1a receptor; assay: Binding affinity was evaluated by measuring the displacement of [3H]AVP (arginine vasopressin) from specific binding sites in rat liver
Vasopressin V1a receptor [8] = biological target: T3, Vasopressin V1a receptor; assay: Binding affinity was evaluated by measuring the displacement of [3H]AVP (arginine vasopressin) from specific binding sites in human platelets
Vasopressin V2 receptor [9] = biological target: T4, Vasopressin V2 receptor; assay: Binding affinity was evaluated by measuring the displacement of [3H]-AVP (arginine vasopressin) from specific binding sites in kidney medulla obtained from rats; assay type: tissue-based
Oxytocin receptor [10] = biological target: T6, Oxytocin receptor; assay: Binding affinity was evaluated by measuring the displacement of [3H]OT (oxytocin) from specific binding sites in uterine tissue obtained from human
Vasopressin V2 receptor [11] = biological target: T1, Vasopressin V2 receptor; assay: Binding affinity was evaluated by measuring the displacement of [3H]-AVP (arginine vasopressin) from specific binding sites in kidney medulla obtained from early postmortem human donors; assay type: tissue-based

Row | Structure (SMILES) | Ki (Vasopressin V2 receptor [1]) [nM] | Ki (Vasopressin V1a receptor [2]) [nM] | Ki (Vasopressin V1a receptor [3]) [nM] | Ki (Vasopressin V2 receptor [4]) [nM] | Ki (Oxytocin receptor [5]) [nM] | Ki (Oxytocin receptor [6]) [nM] | Ki (Vasopressin V1a receptor [7]) [nM] | Ki (Vasopressin V1a receptor [8]) [nM] | Ki (Vasopressin V2 receptor [9]) [nM] | Ki (Oxytocin receptor [10]) [nM] | Ki (Vasopressin V2 receptor [11]) [nM]
1 | CC(=O)NCCCOc1ccc(C(=O)N2CCC(N3C(=O)CCc4ccccc43)CC2)cc1 | > 81000 | 32 | 52000 | > 30000 | 230 | 170 |  |  |  |  | 
2 | CC(=O)N1CCC(Oc2ccc(C(=O)N3CCC(N4C(=O)OCc5ccccc54)CC3)cc2)CC1 |  |  |  |  | 69 |  | 5.6 | 12000 | 35000 | 24 | 
3 | CC(=O)NCCCOc1ccc(C(=O)N2CCC(N3C(=O)OCc4ccccc43)CC2)cc1 |  | 31 | 36000 | 35000 | 200 | 130 |  |  |  |  | 
4 | CC(=O)N1CCCC(COc2ccc(C(=O)N3CCC(N4C(=O)OCc5ccccc54)CC3)cc2)C1 (stereo not given) |  |  |  |  | 340 |  | 24 | 38000 | 11000 | 200 | 
5 | CC(=O)NCCCOc1ccc(C(=O)N2CCC(N3C(=O)NCc4ccccc43)CC2)cc1 |  | > 1000 | 62000 | > 3000 | 2400 | 2100 |  |  |  |  | 
6 | COc1cc(OC2CCN(C(C)=O)CC2)ccc1C(=O)N1CCC(N2C(=O)OCc3ccccc32)CC1 |  |  |  |  |  |  | 3.7 | 3200 | > 30000 | 4.6 | 37000
7 | CC(=O)N1CCCCC1CCOc1ccc(C(=O)N2CCC(N3C(=O)OCc4ccccc43)CC2)cc1 (stereo not given) |  |  |  |  |  |  | 15 | 22000 | 11000 | 150 | 
